Experimental data from ChEMBL document CHEMBL3507680, “University of Dundee, Gates Library screen for HepG2 cell viability”.

Experiment: Human HepG2 cell viability assay in 384 well format
Assay type: toxicity, cell-based
Design: dose 125 nL, time 70.5 hour; concentration not given beside the values
Settings: HepG2 cells, read-out: Inhibition

Row | Compound | cytotoxicity at 70.5 h [%]
1 | Cc1ccc(C)c(OCc2cc(C(=O)N(C)CC(O)CO)no2)c1 (stereo unspecified) | -4.59
2 | CCc1ncc(S(C)(=O)=O)c(C2CCCNC2)n1 (stereo unspecified) | -5.94
3 | CN(CCc1ccccc1)c1cnn(CC2COCCO2)c(=O)c1 (stereo unspecified) | -4.1
4 | Cc1ccc(-c2c(-c3ccccc3)ncn2CCCN2CCOCC2)o1 | -11.8
5 | OC1CCCN(CCNc2ncc(Cl)cc2F)C1 (stereo unspecified) | 16.2
6 | CO[C@H]1CNC[C@@H]1NC(=O)c1cc(C)nc2c(C)c(C)ccc12 | 5.29
7 | Cc1nc(CN2CCN(C(=O)C(c3ccccc3C)N(C)C)CC2)no1 (stereo unspecified) | -7.12
8 | Cn1c(N2CCOCC2)nc2cc(C(=O)N3CCCOCC3)ccc21 | -12.1
9 | Cc1ccccc1CN1CCN(C(=O)c2ccn(C(C)(C)C)c2)CC1 | 16.3
10 | Cc1nc(C(=O)N2CCCCC2c2ccc(CN(C)C)cc2)c(C)o1 (stereo unspecified) | -4.13
11 | CCN(CCN(C)C)c1nc(CCN)nc2sc(C)c(C)c12 | 8.66
12 | O=C(NC[C@@H]1CCCO1)c1ccc(S(=O)(=O)N[C@@H]2CCNC2)cc1 | 6
13 | CCCc1n[nH]cc1C(=O)NCC1COc2cc(OC)ccc2C1 (stereo unspecified) | 14.2
14 | CCc1nc(C)sc1CN1CC[C@@](O)(CCOC)[C@H](C)C1 | -5.48
15 | Cc1nccn1CCCN1CCCC(c2ccccc2)C1 (stereo unspecified) | -1.68
16 | O=C(c1cccs1)N1CC(Oc2ccccc2Cl)C1 | -0.814
17 | CNc1ncccc1C(=O)N1CCCC2(CCN(C)CC2)CC1 | -1.7
18 | COc1ccc(OC)c(C2CCN(CC(C)(C)N3CCOCC3)C2)c1 (stereo unspecified) | -4.45
19 | CC(C)C1CN(C(=O)c2cn3ccccc3n2)CCCN1CC1CC1 (stereo unspecified) | -10.1
20 | c1ccc(OCCSC2=NCCN2)cc1 | -2.35
21 | Cc1nc(-c2nnc(SCC(=O)O)n2C(C)c2ccccc2)co1 (stereo unspecified) | -10
22 | Cc1nc(O)cc(C2CCCN(C(=O)COCc3ccccc3)C2)n1 (stereo unspecified) | 1.06
23 | CCOCCC(=O)N(C)CC1Cc2ccccc2CN1C (stereo unspecified) | -0.994

Row | Compound | cytotoxicity at 70.5 h [%]
24 | CCCn1c(C)c(CC(=O)NC(C)(C)CO)c2c1CC(C)(C)CC2=O | 0.294
25 | Cc1ccc(C(=O)N2CCCC(N)CC2)cc1N1CCNC1=O (stereo unspecified) | -2.27
26 | O=C(O)[C@@H]1CN(C(=O)CCc2ccccn2)C[C@H]1c1ccccc1 | -4.59
27 | c1cc(CCNc2ncnc3c2CCN(Cc2ccoc2)CC3)ccn1 | 0.564
28 | COCCCN1C(=O)CC[C@H]2CN(Cc3ccc4occc4c3)CC[C@H]21 | 26.4
29 | COC(C)(C)C(=O)NCC1CCN(Cc2cc3ccccc3[nH]2)C1 (stereo unspecified) | -17.4
30 | COCCNc1nc2c(c(NCc3cnc(C)c(C)c3)n1)CCNCC2 | -3.2
31 | Cc1cc(N2Cc3cnn(CCO)c3C2)nc(-c2ccccc2O)n1 | -4.43
32 | c1cn(CC2CCOCC2)c(-c2cc(CN3CCCC3)cs2)n1 | -3.55
33 | COCCC1(C(=O)O)CCN(c2cc(C)c3ccccc3n2)CC1 | 18.8
34 | CN(C)C(C(=O)NCC1(Cn2cccn2)CC1)c1ccc(F)cc1 (stereo unspecified) | 3.72
35 | COc1ccc([C@@H]2CN(Cc3ccncc3)C[C@H]2N(C)C)cc1 | -9.42
36 | O=C(O)[C@@H]1CN(C(=O)NCC2CCCCC2)C[C@H]1c1ccccn1 | -2.76
37 | CCCOCC1CCN(C(=O)c2cnc(C)nc2O)C1 (stereo unspecified) | -2.13
38 | CSc1nccc(N2CCC(NCCN3CCOCC3)CC2)n1 | -6.94
39 | COc1ccccc1C(C(=O)O)N1CCCN(C2CCCC2)CC1 (stereo unspecified) | 16.1
40 | O=C(NC1CC1)[C@H]1[C@@H]2CN(Cc3ccc(-c4ccn[nH]4)s3)C[C@@H]21 | 0.292
41 | O=C1CC[C@@H](C(=O)N2CCc3[nH]nc(COc4cccc(Cl)c4)c3C2)N1 | -8.37
42 | Oc1cccc(CN2CCN(C3CCc4ccccc4C3)CC2)c1 (stereo unspecified) | 19.8
43 | CCO[C@H]1C[C@@H](O)C12CCN(C(=O)CN1CCCCCC1=O)CC2 | 6.65
44 | Cc1nc(N(C)C)nc(NCCc2c[nH]cn2)c1C | 23.7
45 | CN(C)C1CCN(c2cc(-c3ccccc3)nc3ccnn23)C1 (stereo unspecified) | 5.02
46 | Cc1nc2c(c(=O)n1C)CN(C(=O)C1CCCN(CC(N)=O)C1)C2 (stereo unspecified) | 8.71

Row | Compound | cytotoxicity at 70.5 h [%]
47 | CCc1ccc(CN2CCN(c3ccc(C#N)cc3)C(=O)C2)nc1 | -10.5
48 | Cc1nc(CN(C)C(=O)C2CC(=O)N(c3cccc(O)c3)C2)cs1 (stereo unspecified) | -2.8
49 | CC(C)[C@@H]1CN(Cc2c[nH]nc2-c2ccc(F)cc2)C[C@H]1NS(C)(=O)=O | -2.13
50 | COC(=O)CNC(=O)CC1COc2ccc(C(=O)N(C)C)cc2N1C (stereo unspecified) | -2.55
51 | O=C(CN1CCCCCC1)NCCSc1cnn[nH]1 | 0.00682
52 | CC(C)(C)CCN1CCC(c2nnc(Cn3cccn3)n2C2CC2)CC1 | -9.38
53 | Cc1c(C(=O)N[C@H]2CN(CCS(C)(=O)=O)C[C@@H]2C2CC2)cnn1C | -5.86
54 | O=C1NCC2(CCCN(C(=O)c3c[nH]nc3-c3cccs3)C2)O1 (stereo unspecified) | -8.3
55 | CCOCC(=O)N1CCC(Cc2nnc(SC)n2C)CC1 | -3.88
56 | CCc1nc(N2CCN(CCOC)CC2)c2cnn(C)c2n1 | -11.9
57 | CCC1(CO)CCCN(Cc2nccn2Cc2ccccc2)C1 (stereo unspecified) | -4.15
58 | CCn1c(C2CCN(Cc3cc(C)n(NC(C)=O)c3C)CC2)n[nH]c1=O | -4.98
59 | O=C(NC1CC(=O)N(C2Cc3ccccc3C2)C1)c1csnn1 (stereo unspecified) | -1.65
60 | COCCN(C)C[C@@H]1CN(C(=O)c2ccc(C)c(Cl)c2)C[C@@H]1CO | 1.13
61 | Cc1ccccc1C(=O)N1CC[C@@H](N2CCC(O)CC2)[C@H](O)C1 | -1.6
62 | CC(C)c1cc(N2CCCC3(CCN(C)C3)C2)ncn1 (stereo unspecified) | -5.86
63 | CCc1cn[nH]c1C1CCCN(C(=O)c2cc(C#N)c(=O)[nH]c2C)C1 (stereo unspecified) | -22.8
64 | O=C(Nc1ccc(S(=O)(=O)Nc2c(F)cccc2F)cc1)N1CCCC1 | -6.84
65 | Cc1cccc2cc(CO)c(N3Cc4cnc(C(C)(C)C)nc4C3)nc12 | 7.83
66 | C[C@@H]1CN(Cc2cc(C(F)(F)F)ccc2F)CC[C@@]1(O)C1CC1 | -2.04
67 | CC(=O)N1CCC(N[C@@H]2CC[C@@H]2NS(=O)(=O)c2cccnc2)CC1 | 2.57
68 | CCn1cc(CN2CCCC3(CCC(=O)N(CCC(C)C)C3)C2)cn1 (stereo unspecified) | -1.61
69 | CC(C)[C@H]1COC(=O)N1CC(=O)N1CCCN(C(=O)c2ccoc2)CC1 | -8.34

Row | Compound | cytotoxicity at 70.5 h [%]
70 | CC(C)Cc1cc(CNC(=O)C2CCCN(Cc3ccco3)C2)no1 (stereo unspecified) | -4.13
71 | COc1ccccc1C1CCN(C(=O)CN2C(=O)OC(C)(C)C2=O)CC1 | -6.76
72 | Cc1cccc(-n2ncc3c2CCCC3NCC(C)(C)CO)c1C (stereo unspecified) | -10.7
73 | O=C(c1ccccc1-c1nc[nH]n1)N1CCOC(C(F)(F)F)C1 (stereo unspecified) | -2.49
74 | CN(C)c1nc2c(c(NCc3nnc4n3CCCCC4)n1)CCNC2 | -6.97
75 | CC(C)n1ccc(CN2CCN(c3cc(NC4CC4)nc(N)n3)CC2)c1 | -9
76 | CCCc1cc(=O)[nH]c(-c2ccccc2CN(C)CCC(C)C)n1 | 18.2
77 | CC(=O)Nc1ccc(C(=O)N(C)C(C)Cc2cc(C)ccn2)cn1 (stereo unspecified) | 1.81
78 | CN1CC[C@H]2CN(C(=O)COCc3nc4cc(F)ccc4[nH]3)C[C@H]21 | 20.4
79 | Cc1nc(O)cc(CCNC(=O)c2ccccc2N2CCCC2)n1 | 27
80 | CCc1cc(N[C@H]2CCC[C@H]2CO)n2nccc2n1 | 6
81 | CCCn1cc(C(=O)NCCc2ccc3c(c2)OCO3)c(C)n1 | -4.51
82 | CCc1c(C)sc(NC(=O)CN2CCOCC2)c1C(=O)OC | -6.67
83 | CSCc1ccc(N2CCC(C(O)Cc3ccccc3)CC2)nc1 (stereo unspecified) | 26.6
84 | COCCN(C)CCN1CC2(CCN(C3CCNCC3)CC2)OC1=O | -10.2
85 | CN(C(=O)c1cccc(NCc2cccs2)c1)C(C1CC1)C1CC1 | -11.2
86 | CC(=O)N1C[C@H](NS(=O)(=O)c2cccc(Cl)c2)[C@@H](C(C)C)C1 | -9.51
87 | CCC[C@H]1CN(c2nccc(OC)n2)C[C@@H]1NS(=O)(=O)N(C)C | 0.969
88 | Cc1[nH]nc(CCC(=O)N2CCc3ncnc(NCCO)c3CC2)c1C | -12.5
89 | COc1coc(CN2CCCC(CCc3ccccc3F)C2)cc1=O (stereo unspecified) | 16.9
90 | CCCNS(=O)(=O)c1ccc2[nH]c(=O)cc(C)c2c1 | -12.9
91 | Cc1cccnc1CC(C)NC1Cc2ccccc2C1 (stereo unspecified) | 5.92
92 | O=C(NC1CC1)c1nc(Cn2c(C(F)F)nc3ccccc32)no1 | -7.88

Row | Compound | cytotoxicity at 70.5 h [%]
93 | Cc1noc(C)c1CCNc1nccc(CCC(F)(F)F)n1 | -8.75
94 | CNCc1cn(C2CCN(C(=O)NCc3ccco3)CC2)nn1 | -8.5
95 | CCc1nc2c(NCC3COc4cc(OC)ccc4C3)ncnc2o1 (stereo unspecified) | -5.75
96 | CC(C)NC(=O)c1nc(Cn2c(C(F)F)nc3ccccc32)no1 | -15.2
97 | CN(C)S(=O)(=O)N1CC[C@]2(O)CCN(c3nccs3)C[C@@H]2C1 | 21.2
98 | CCN1CCN(C(=O)COc2ccc(CN(C)S(C)(=O)=O)cc2)CC1 | -3.87
99 | CCc1ccc(CNC(=O)CCc2nnc(-c3ccc(C)s3)o2)nc1 | -3.31
100 | CCCN(Cc1cccc(OCCO)c1)Cc1ccccc1OC | 5.31
101 | CN(C)CC(C)(C)Cn1cnc(-c2ccccc2)c1-c1ccncc1 | -9.09
102 | CCCN1CCC(NC(=O)c2csc(C)c2C)CC1 | -7.88
103 | CC(C1CCN(Cc2cnn(C)c2C2CC2)CC1)N1CCCC1 (stereo unspecified) | -7.31
104 | Cc1ccccc1N1CCN(C(=O)CC(C)C)CC1 | 0.0324
105 | CCCN1CCC(NC(=O)c2csc(C)c2-c2ccccc2)CC1 | -9.07
106 | Cc1ccc2c(c1)c(CNC(=O)C1CC(=O)N(CCN(C)C)C1)nn2C (stereo unspecified) | -0.487
107 | N#CC1CCCN(c2ncnc3c2CCN(Cc2ccccc2)CC3)C1 (stereo unspecified) | 2.53
108 | CCN(CCO)C[C@@H]1CN(c2nc(C)cc(C)n2)C[C@@H]1CO | -2.32
109 | Cc1cc(=O)[nH]c(=O)n1-c1cccc(Cl)c1Cl | -12.3
110 | COC(=O)c1ccc(CN(C(C)C)C(C)C)o1 | -2.95
111 | Cc1ccc(OCCSC2=NCCN2)cc1 | -4.93
